Results: patent US10642156B2, “Resist base material, resist composition and method for forming resist pattern” (Mitsubishi Gas Chemical Company, Inc., priority 2015, dated 2020)

Key:
[1] = Test on safe solvent solubility of compound; assay type: physicochemical; conditions: 23° C., ultrasound 30 minutes, visually observed; for Safety solvent solubility test CHN: cyclohexanone (CHN); for Safety solvent solubility test PGME: propylene glycol monomethyl ether (PGME); for Safety solvent solubility test PGMEA: propylene glycol monomethyl ether acetate (PGMEA)
Procedure: (1) Test on Safe Solvent Solubility of Compound
The solubility of the compound in cyclohexanone (CHN), propylene glycol monomethyl ether (PGME), and propylene glycol monomethyl ether acetate (PGMEA) was evaluated according to the following standard using the dissolution amount in each solvent. For the measurement of the dissolution amount, the compound was precisely weighed into a test tube at 23° C., and the target solvent was added thereto at a predetermined concentration. Ultrasound was applied for 30 minutes in an ultrasonic cleaning machine. Then, the state of the liquid was visually observed.
Evaluation A: 20% by mass≤dissolution amount
Evaluation B: 10% by mass≤dissolution amount<20.0% by mass
Evaluation C: Dissolution amount<10% by mass

[2] = 10% thermal reduction temperature by thermogravimetry (TG); assay type: physicochemical; conditions: nitrogen gas stream, 10° C./min to 500° C.
Procedure: (3) Thermal Reduction Temperature
“EXSTAR 6000 DSC” apparatus manufactured by SII NanoTechnology Inc. was used. About 5 mg of a sample was placed in an unsealed container made of aluminum, and the temperature was raised to 500° C. at a temperature increase rate of 10° C./min in a nitrogen gas (30 mL/min) stream. In this operation, 10% thermal reduction temperature was measured.

10% thermal reduction temperature [2]	SMILES	Safety solvent solubility test CHN [1]	Safety solvent solubility test PGME [1]	Safety solvent solubility test PGMEA [1]
≥ 300 °C	Oc1ccc(C2=CC(C(c3ccc(I)cc3)c3cc(-c4ccc(O)cc4)ccc3O)C(O)C=C2)cc1 (stereo not drawn) [BiF-I-1]	A (Evaluation A: 20% by mass≤dissolution amount)	A (Evaluation A: 20% by mass≤dissolution amount)	A (Evaluation A: 20% by mass≤dissolution amount)
≥ 300 °C	COc1cc(I)cc(C(c2cc(C3C=CC(O)=CC3)ccc2O)C2C=C(C3=CCC(O)C=C3)C=CC2O)c1 (stereo not drawn) [BiF-I-2]	A (Evaluation A: 20% by mass≤dissolution amount)	A (Evaluation A: 20% by mass≤dissolution amount)	A (Evaluation A: 20% by mass≤dissolution amount)
≥ 300 °C	Oc1ccc(-c2ccc(O)c(C(c3cccc(I)c3)c3cc(-c4ccc(O)cc4)ccc3O)c2)cc1 [BiF-I-3]	A (Evaluation A: 20% by mass≤dissolution amount)	A (Evaluation A: 20% by mass≤dissolution amount)	A (Evaluation A: 20% by mass≤dissolution amount)
